US10351915B2 (Berg LLC, priority 2009, dated 2019)

Test system: ATP Citrate Lyase (ACL)
Assay: Western blot, ATP Citrate Lyase levels
Format: cell-based, human
Conditions: for ATP Citrate Lysase as % of CTRL, Normalized Intensity: 48 h
Protocol: After transfer each of the blots was placed in between 2 Whatman Filter papers and dried for 15-20 minutes. After drying the blots were labeled with the date, the type of samples and either blot 1 or blot 2 using a HB pencil. The molecular weight markers were outlined with the pencil and with single lines for the blue and a doublet for the colored markers. The blots were activated with methanol for 5 seconds, washed with water for 5 minutes, and TBST for 15 minutes. The blots were blocked for 1 hour with 5% blocking reagent in TBS-T at room temperature and then washed 3 times with TBS-T (1×-15′; 2×5′ each). Blot 1 was probed with the primary antibody for IDH1 (Cell Signaling #3997) in TBST with 5% BSA (at 1:1000 dilutions) and blot 2 with the rabbit polyclonal antibody for ATP Citrate Lyase in 5% BSA (Cell Signaling #4332) at 1:1000 dilution by incubation overnight at 4 deg C. with shaking. After the overnight incubation with primary antibodies, the blots were washed 3 times with TBS-T (1×-15′; 2×5′ each) and probed with the secondary antibody (antirabbit; 1:10,000 dilution) for 1 h on the orbital tilting shaker at room temperature. After 1 h of incubation with secondary antibodies, the blots were washed 3 times with TBS-T (1×-15′; 2×5′ each) and then incubated with ECF reagent for 5 mins and then each blot scanned with 5100 Fuji Laser scanner at 25 uM resolution, 16 bit, green laser, at 400V and at 500 V.
The Isocitrate dehydrogenase blot was stripped by incubating for 30 minutes with methanol, followed by two 10 minute washes with TBS-T, then 30 minutes of incubation with stripping buffer at 50 deg C., and followed by two washes with 100 ml or more of TBS-T for 30′ each. The blot was scanned in laser scanner to check for complete stripping. The blot was activated with methanol for 5 seconds, washed with water for 5 minutes, and TBST for 15 minutes. The blot was blocked for 1 hour with 5% blocking reagent in TBS-T at room temperature and then washed 3 times with TBS-T (1×-15′; 2×5′ each). This was then probed with the rabbit polyclonal antibody for ATP Citrate Lyase in 5% BSA (Cell Signaling #4332) at 1:1000 dilution overnight at 4 deg C. with shaking. After the overnight incubation with primary antibody for ATP Citrate Lyase, the membrane was washed 3 times with TBS-T (1×-15′; 2×5′ each) and probed with the secondary antibody (antirabbit; 1:10,000 dilution) for 1 h on the orbital tilting shaker at room temperature. After 1 h of incubation with secondary antibodies, the blot was washed 3 times with TBS-T (1×-15′; 2×5′ each) and then incubated with ECF reagent for 5 minutes and then each blot scanned with 5100 Fuji Laser scanner at 25 uM resolution, 16 bit, green laser, at 400V and at 500 V.
The levels of IDH1, ATP citrate lyase and actin levels were determined by probing the blots with primary antibodies for IDH1, ATP citrate lyase and actin, essentially as described above.

For `COC1=C(OC)C(=O)C(C/C=C(\C)CC/C=C(\C)CC/C=C(\C)CC/C=C(\C)CC/C=C(\C)CC/C=C(\C)CC/C=C(\C)CC/C=C(\C)CC/C=C(\C)CCC=C(C)C)=C(C)C1=O` [Q10, Coenzyme Q10], the “ATP Citrate Lysase as % of CTRL, Normalized Intensity” value (HepG2, 5g glucose, amount 50) was 0.85 % of CTRL, the “ATP Citrate Lysase as % of CTRL, Normalized Intensity” value (HepG2, 5g glucose, amount 100) was 0.79 % of CTRL and the “ATP Citrate Lysase as % of CTRL, Normalized Intensity” value (HepG2, 22G glucose, amount 100) was 2.09 % of CTRL. For the same compound, the “ATP Citrate Lysase as % of CTRL, Normalized Intensity” value (PACA2, 5g glucose, amount 50) was 0.68 % of CTRL, the “ATP Citrate Lysase as % of CTRL, Normalized Intensity” value (PACA2, 5g glucose, amount 100) was 0.42 % of CTRL and the “ATP Citrate Lysase as % of CTRL, Normalized Intensity” value (PACA2, 22G glucose, amount 50) was 1.12 % of CTRL. For the same compound, the “expression of ACL” value (cancer cells) was “dose-dependent decrease”.
